Laboratory results published in patent US11773062B2, “Deuterated compounds” (priority 2021, dated 2023).
Read-outs that look alike come from different tables or passages of the source.

Experiments:
CYP1A2 = target: T1, CYP1A2 (Homo sapiens, UniProt P05177); experiment: in vitro
T1 sequence (P05177 1-516): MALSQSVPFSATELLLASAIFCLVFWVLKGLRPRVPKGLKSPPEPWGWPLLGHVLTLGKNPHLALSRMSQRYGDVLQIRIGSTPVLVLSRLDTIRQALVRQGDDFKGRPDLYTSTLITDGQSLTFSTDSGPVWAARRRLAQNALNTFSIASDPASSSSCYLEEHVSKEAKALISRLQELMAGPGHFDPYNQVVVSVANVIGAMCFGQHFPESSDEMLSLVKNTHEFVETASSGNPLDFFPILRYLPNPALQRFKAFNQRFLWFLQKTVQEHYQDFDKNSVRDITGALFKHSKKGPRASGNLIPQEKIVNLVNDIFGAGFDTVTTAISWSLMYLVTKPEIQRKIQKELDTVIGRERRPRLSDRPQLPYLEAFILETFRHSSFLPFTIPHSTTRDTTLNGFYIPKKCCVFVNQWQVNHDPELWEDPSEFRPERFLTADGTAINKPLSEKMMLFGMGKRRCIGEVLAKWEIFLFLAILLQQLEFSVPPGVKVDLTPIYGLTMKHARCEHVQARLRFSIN
Protocol: (§1) Samples were taken at predetermined time points.
(§2) Samples were then centrifuged at −4° C.
(§3) Positive control markers are as specified in Table 11.

CYP2B6 = target: T2, CYP2B6 (Homo sapiens, UniProt P20813); experiment: in vitro; details: E. coli CYPEX membranes, 100 pmol/mL CYP
T2 sequence (P20813 1-491): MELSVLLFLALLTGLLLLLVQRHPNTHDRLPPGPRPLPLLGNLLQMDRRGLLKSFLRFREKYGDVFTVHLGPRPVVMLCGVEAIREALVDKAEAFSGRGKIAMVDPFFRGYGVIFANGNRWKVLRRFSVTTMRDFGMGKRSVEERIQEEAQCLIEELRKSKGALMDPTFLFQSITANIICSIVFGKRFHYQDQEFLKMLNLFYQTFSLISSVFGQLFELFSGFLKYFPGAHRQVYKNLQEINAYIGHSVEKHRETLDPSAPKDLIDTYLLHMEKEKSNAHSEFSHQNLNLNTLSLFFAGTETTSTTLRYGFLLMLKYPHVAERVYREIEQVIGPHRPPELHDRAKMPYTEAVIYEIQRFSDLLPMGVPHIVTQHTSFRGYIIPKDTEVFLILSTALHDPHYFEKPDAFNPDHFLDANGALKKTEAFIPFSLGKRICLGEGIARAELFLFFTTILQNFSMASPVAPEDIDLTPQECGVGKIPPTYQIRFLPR
Protocol: as §1, §2, §3

CYP2C8 = target: T3, CYP2C8 (Homo sapiens, UniProt P10632); experiment: in vitro; details: E. coli CYPEX membranes, 100 pmol/mL CYP
T3 sequence (P10632 1-490): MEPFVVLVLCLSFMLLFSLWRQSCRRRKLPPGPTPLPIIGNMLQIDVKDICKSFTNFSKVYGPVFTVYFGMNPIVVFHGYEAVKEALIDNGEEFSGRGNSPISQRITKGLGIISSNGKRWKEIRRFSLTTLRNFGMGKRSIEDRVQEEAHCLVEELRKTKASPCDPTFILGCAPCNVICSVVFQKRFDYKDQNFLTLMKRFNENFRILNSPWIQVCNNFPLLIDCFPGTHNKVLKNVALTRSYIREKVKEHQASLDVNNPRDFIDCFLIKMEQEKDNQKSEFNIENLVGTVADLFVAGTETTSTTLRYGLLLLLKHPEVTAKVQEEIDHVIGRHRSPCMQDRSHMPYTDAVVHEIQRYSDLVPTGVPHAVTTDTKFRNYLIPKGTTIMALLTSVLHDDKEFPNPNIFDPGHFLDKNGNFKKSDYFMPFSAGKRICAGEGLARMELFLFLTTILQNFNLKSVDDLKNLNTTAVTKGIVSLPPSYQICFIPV
Protocol: as §1, §2, §3

CYP3A5 = CYP3A5 (Homo sapiens, UniProt P20815); experiment: in vitro; details: E. coli CYPEX membranes, 100 pmol/mL CYP
Protocol: as §1, §2, §3

CYP2C19 = CYP2C19 (Homo sapiens, UniProt P33261); experiment: CYP phenotyping, CYP bactosomes; details: for substrate for CYP2C19: CYP phenotyping; for projected scaled intrinsic clearance, CYP isoform 2C19: scaled by estimated CYP abundance in human liver microsomes (0.009 nmol CYP/mg)
Protocol: as §1, §2, §3

CYP2C9 = CYP2C9 (Homo sapiens, UniProt P11712); experiment: CYP phenotyping, CYP bactosomes
Protocol: as §1, §2, §3

CYP3A4 = CYP3A4 (Homo sapiens, UniProt P08684); experiment: CYP phenotyping, CYP bactosomes
Protocol: as §1, §2, §3

CYP2D6 [1] = target: T4, CYP2D6 (Homo sapiens, UniProt P10635); details: for intrinsic clearance, CYP isoform 2D6: human, recombinant enzyme, pH 7.4
Protocol: (§4) The CYPs used in this study are heterologously expressed in E. coli and purchased as individualised forms (CYP bactosomes) from CYPEX. Bactosomes contain recombinant CYP isoenzymes combined with CYP reductase leading to a higher specific activity than liver microsomes.
(§5) Phosphate buffer is prepared at 0.1 M, pH 7.4 by combining 0.1 M Na2HPO4 and 0.1 M KH2PO4 solutions.
(§6) Nicotinamide adenine dinucleotide 2′-phosphate reduced tetrasodium salt hydrate (NADPH) is prepared at 10 m<in 0.1 M phosphate buffer (pH 7.4).
(§7) The individual CYP bactosomes are thawed at room temperature undiluted to 200 pmol/mL and 0.1 M phosphate buffer.
(§8) Standard final incubation conditions are 1-3 μM compound in a buffer containing 100 pmol/mL CYP bactosome, 1% (v/v) DMSO.
(§9) The elimination rate constant (k) is calculated using the slope of a ln (MS peak area or response—if internal standard is used) vs. time plot of the test compounds and markers.
(§10) Intrinsic clearance in μL/min/nmol CYP is calculated using the following equation: Clint=−1000 k/CYP concentration
(§11) Projected CYP isoform intrinsic clearance accounting for estimated CYP abundance in human liver microsomes (μL/min/mg microsomal protein)* is calculated using the following equation: Projected set isoform intrinsic clearance=Estimated CYP abundance*Clint * Estimated CYP abundance is taken as an average from three literature references 1, 2 3 and the abundances used are as follows (nmol CYP/mg Human Liver Microsomal Protein):

CYP2D6 [2] = target: T4, CYP2D6; experiment: CYP phenotyping, CYP bactosomes; details: for substrate for CYP2D6: CYP phenotyping; for half-life, CYP isoform 2D6 / intrinsic clearance, CYP isoform 2D6: E. coli CYPEX membranes, 100 pmol/mL CYP; for projected scaled intrinsic clearance, CYP isoform 2D6: scaled by estimated CYP abundance in human liver microsomes (0.012 nmol CYP/mg)
Protocol: as §4, §5, §6, §7, §8, §9, §10, §11

[3] = system: mouse (male CD-1) hepatocytes; experiment: In vitro mouse hepatocytic intrinsic clearance; details: mouse CD-1 hepatocytes 0.367 million cells/mL, 5 μM (Table 8)
[4] = system: human (mixed gender) hepatocytes; experiment: In vitro intrinsic clearance in human hepatocytes with and without MAO-A/B inhibitor combination (first experiment); details: for % change in half-life, MAO inhibitors vs no inhibitors / % change in intrinsic clearance, MAO inhibitors vs no inhibitors: human hepatocytes (Table 5); for Intrinsic clearance, without inhibitors: without MAO-A/B inhibitor combination (Table 5)
Protocol: Standard final incubation conditions are 1 μM compound in buffer containing nominally ˜0.5 million viable cells/mL, ˜0.9% (v/v) acetonitrile (MeCN) and ˜0.1% (v/v) DMSO (specific assay concentrations outlined above, section 2).
Samples are then centrifuged at 4° C.

CYP2D6 [5] = target: T4, CYP2D6; experiment: in vitro; details: recombinant enzyme, pH 7.4
Protocol: as §4, §5, §6, §7, §8, §9, §10, §11

[6] = Human liver mitochondrial fraction intrinsic clearance of SPL026, SPL028i, SPL028iii, SPL028viii; format: in vitro ADME; details: 0.5 mg/mL human liver mitochondrial fraction (Table 10)
Description: Human Liver Mitochondrial (HLMt) fractions contain high quantities of MAO enzymes and therefore, provide a useful tool to measure the clearance of MAO substrates.

[7] = E. coli CYPEX membranes, 100 pmol/mL CYP
[8] = human hepatocytes, with 100 nM clorgyline + 100 nM deprenyl/selegiline (Table 3)
[9] = human hepatocytes, with MAO-A/B inhibitor combination (Table 5)
[10] = human, recombinant enzyme, pH 7.4

Chain of CYP2C19 (P33261 whole entry, canonical isoform): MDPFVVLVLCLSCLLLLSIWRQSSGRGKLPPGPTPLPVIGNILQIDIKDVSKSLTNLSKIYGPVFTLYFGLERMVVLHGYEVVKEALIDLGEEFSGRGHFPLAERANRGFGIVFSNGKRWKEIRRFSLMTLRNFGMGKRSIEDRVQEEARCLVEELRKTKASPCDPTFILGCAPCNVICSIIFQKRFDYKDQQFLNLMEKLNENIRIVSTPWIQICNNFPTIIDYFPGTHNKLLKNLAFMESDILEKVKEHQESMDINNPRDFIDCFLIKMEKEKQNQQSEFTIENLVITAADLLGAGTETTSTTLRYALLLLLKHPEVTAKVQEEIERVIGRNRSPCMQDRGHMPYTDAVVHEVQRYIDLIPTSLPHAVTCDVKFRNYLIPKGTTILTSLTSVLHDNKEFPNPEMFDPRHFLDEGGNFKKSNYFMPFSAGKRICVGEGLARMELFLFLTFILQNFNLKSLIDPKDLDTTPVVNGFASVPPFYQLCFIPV
Chain of CYP3A5 (P20815 whole entry): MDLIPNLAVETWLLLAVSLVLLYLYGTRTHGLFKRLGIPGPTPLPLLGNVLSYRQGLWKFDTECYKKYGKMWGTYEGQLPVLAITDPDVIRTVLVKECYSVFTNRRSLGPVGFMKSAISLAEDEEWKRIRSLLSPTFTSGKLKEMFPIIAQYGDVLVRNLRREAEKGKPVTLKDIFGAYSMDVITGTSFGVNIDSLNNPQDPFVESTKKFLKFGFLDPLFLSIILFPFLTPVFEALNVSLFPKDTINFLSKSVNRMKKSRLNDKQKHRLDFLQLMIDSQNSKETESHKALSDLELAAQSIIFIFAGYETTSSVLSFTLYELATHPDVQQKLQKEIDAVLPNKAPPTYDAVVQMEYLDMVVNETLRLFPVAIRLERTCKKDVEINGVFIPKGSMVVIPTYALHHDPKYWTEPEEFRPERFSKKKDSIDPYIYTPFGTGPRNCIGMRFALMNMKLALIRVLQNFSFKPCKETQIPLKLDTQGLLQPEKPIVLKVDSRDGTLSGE
T4 sequence (P10635 whole entry, canonical isoform): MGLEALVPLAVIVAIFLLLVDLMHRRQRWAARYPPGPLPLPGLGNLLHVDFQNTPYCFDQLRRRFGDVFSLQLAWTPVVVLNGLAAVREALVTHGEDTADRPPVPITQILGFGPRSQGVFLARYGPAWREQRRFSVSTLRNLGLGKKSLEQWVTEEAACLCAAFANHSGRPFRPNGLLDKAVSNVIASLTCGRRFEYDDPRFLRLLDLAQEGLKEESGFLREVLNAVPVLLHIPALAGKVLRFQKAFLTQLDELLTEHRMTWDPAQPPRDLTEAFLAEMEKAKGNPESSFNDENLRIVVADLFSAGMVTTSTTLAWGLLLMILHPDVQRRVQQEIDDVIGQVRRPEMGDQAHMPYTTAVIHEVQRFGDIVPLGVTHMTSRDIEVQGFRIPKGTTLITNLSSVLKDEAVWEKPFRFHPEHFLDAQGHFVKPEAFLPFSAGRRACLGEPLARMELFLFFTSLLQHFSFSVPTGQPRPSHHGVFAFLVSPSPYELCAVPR
Chain of CYP2C9 (P11712 whole entry): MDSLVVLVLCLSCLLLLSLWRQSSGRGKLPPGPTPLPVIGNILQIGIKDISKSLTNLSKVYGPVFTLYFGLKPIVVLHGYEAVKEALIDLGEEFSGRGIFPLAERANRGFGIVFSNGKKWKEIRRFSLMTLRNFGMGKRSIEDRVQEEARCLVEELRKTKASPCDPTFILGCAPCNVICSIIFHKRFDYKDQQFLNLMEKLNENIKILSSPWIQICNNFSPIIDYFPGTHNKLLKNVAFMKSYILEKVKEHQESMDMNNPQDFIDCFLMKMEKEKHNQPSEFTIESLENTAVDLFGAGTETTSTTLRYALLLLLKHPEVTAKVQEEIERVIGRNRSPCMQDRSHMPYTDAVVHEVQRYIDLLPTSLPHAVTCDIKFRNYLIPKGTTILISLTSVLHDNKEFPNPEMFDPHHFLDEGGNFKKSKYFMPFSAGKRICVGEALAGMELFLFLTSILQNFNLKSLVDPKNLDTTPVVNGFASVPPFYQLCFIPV
Chain of CYP3A4 (P08684 whole entry): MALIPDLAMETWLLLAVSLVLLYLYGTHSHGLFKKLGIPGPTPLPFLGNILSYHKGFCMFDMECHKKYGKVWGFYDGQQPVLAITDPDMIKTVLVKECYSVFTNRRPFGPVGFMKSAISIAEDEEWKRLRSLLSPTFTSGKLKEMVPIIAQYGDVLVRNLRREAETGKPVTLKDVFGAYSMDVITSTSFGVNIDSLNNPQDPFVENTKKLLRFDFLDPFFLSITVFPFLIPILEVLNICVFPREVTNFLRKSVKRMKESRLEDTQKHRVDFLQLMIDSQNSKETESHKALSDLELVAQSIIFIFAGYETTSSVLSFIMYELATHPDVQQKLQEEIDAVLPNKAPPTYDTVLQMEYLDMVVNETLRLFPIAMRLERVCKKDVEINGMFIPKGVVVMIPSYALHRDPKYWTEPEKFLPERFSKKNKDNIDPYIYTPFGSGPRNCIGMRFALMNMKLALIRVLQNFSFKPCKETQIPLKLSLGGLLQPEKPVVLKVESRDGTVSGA

Row | Structure (SMILES) | half-life, CYP isoform 1A2 (CYP1A2; [7]) | intrinsic clearance, CYP isoform 1A2 (CYP1A2; [7]) | half-life, CYP isoform 2B6 (CYP2B6) | intrinsic clearance, CYP isoform 2B6 (CYP2B6) | half-life, CYP isoform 2C8 (CYP2C8) | intrinsic clearance, CYP isoform 2C8 (CYP2C8) | half-life, CYP isoform 3A5 (CYP3A5) | intrinsic clearance, CYP isoform 3A5 (CYP3A5) | substrate for CYP2C19 (CYP2C19) | half-life, CYP isoform 2C19 (CYP2C19; [7]) | intrinsic clearance, CYP isoform 2C19 (CYP2C19; [7]) | projected scaled intrinsic clearance, CYP isoform 2C19 (CYP2C19) | half-life, CYP isoform 2C9 (CYP2C9; [7]) | intrinsic clearance, CYP isoform 2C9 (CYP2C9; [7]) | half-life, CYP isoform 3A4 (CYP3A4; [7]) | intrinsic clearance, CYP isoform 3A4 (CYP3A4; [7]) | projected scaled intrinsic clearance, CYP isoform 2D6 (CYP2D6 [1]) | substrate for CYP2D6 (CYP2D6 [2]) | half-life, CYP isoform 2D6 (CYP2D6 [2]) | intrinsic clearance, CYP isoform 2D6 (CYP2D6 [2]) | further results
1 | [2H]C([2H])(Cc1c[nH]c2ccccc12)N(C)C [SPL028ii, α,α,-bis-deuterium-N,N-dimethyltryptamine] | >4 h | <29 μL/min/nmol CYP | >4 h | <29 μL/min/nmol CYP | >4 h | <29 μL/min/nmol CYP | >4 h | <29 μL/min/nmol CYP | substrates | 2.93 h | 39 μL/min/nmol CYP | 0.4 μl/min/mg microsomal protein | >4 h | <29 μL/min/nmol CYP | >4 h | <29 μL/min/nmol CYP | 9.5 μl/min/mg microsomal protein | substrates | 0.15 h | 801 μL/min/nmol CYP | w Half-life [3]: 0.307 h; w Intrinsic clearance [3]: 102.7 μL/min/million cells; % change in half-life, MAO inhibitors vs no inhibitors [4]: 14.69%; % change in intrinsic clearance, MAO inhibitors vs no inhibitors [4]: −19.13%; Intrinsic clearance, with inhibitors [4, 8]: 8.78 μL/min/million cells; Intrinsic clearance, with inhibitors [4, 9]: 8.78 μL/min/million cells; Intrinsic clearance, without inhibitors ([4]; human hepatocytes): 10.46 μL/min/million cells
2 | COc1ccccc1OCCNCC(O)COc1cccc2[nH]c3ccccc3c12 (stereo not drawn) [Carvedilol, reference compound] |  |  |  |  |  |  |  |  |  |  |  |  |  |  |  |  |  |  |  |  | half-life (CYP1A2; [10]): 0.5 h; intrinsic clearance, CYP isoform 1A2 (CYP1A2; [10]): 231 μL/min/nmol CYP; half-life (CYP2C19; [10]): 0.217 h; intrinsic clearance, CYP isoform 2C19 (CYP2C19; [10]): 526 μL/min/nmol CYP; half-life (CYP2C9; [10]): 2.23 h; intrinsic clearance, CYP isoform 2C9 (CYP2C9; [10]): 52 μL/min/nmol CYP; half-life (CYP3A4; [10]): 0.817 h; intrinsic clearance, CYP isoform 3A4 (CYP3A4; [10]): 142 μL/min/nmol CYP; intrinsic clearance, CYP isoform 2D6 (CYP2D6 [1]): 4483 μL/min/nmol CYP; half-life (CYP2D6 [5]): 2 min
3 | CN(C)CCc1c[nH]c2ccccc12 [DMT in SPL028ii] | >4 h |  | >4 h |  | >4 h | <29 μL/min/nmol CYP | >4 h | <29 μL/min/nmol CYP |  | 2.7 h | 43 μL/min/nmol CYP | 0.4 μl/min/mg microsomal protein | >4 h | <29 μL/min/nmol CYP | >4 h | <29 μL/min/nmol CYP |  |  | 0.15 h | 803 μL/min/nmol CYP | projected scaled intrinsic clearance, CYP isoform 2D6 (CYP2D6 [2]): 9.5 μl/min/mg microsomal protein
4 | CN(C)CCc1c[nH]c2ccccc12 [DMT in SPL028i] | >4 h |  | >4 h |  | >4 h | <29 μL/min/nmol CYP | >4 h | <29 μL/min/nmol CYP |  | 2.93 h | 40 μL/min/nmol CYP | 0.4 μl/min/mg microsomal protein | >4 h | <29 μL/min/nmol CYP | >4 h | <29 μL/min/nmol CYP |  |  | 0.167 h | 687 μL/min/nmol CYP | projected scaled intrinsic clearance, CYP isoform 2D6 (CYP2D6 [2]): 8.1 μl/min/mg microsomal protein
5 | COc1ccc2c(c1)[C@]13CCCC[C@@H]1[C@H](C2)N(C)CC3 [Dextromethorphan] |  |  |  |  |  |  |  |  |  |  |  |  |  |  |  |  |  |  |  |  | intrinsic clearance, CYP isoform 2D6 (CYP2D6 [1]): 2686 μL/min/nmol CYP; half-life (CYP2D6 [5]): 3 min
6 | [2H]C([2H])(Cc1c[nH]c2ccccc12)N(C)C [SPL028i, α,α,-bis-deuterium-N,N-dimethyltryptamine] | >4 h | <29 μL/min/nmol CYP | >4 h | <29 μL/min/nmol CYP | >4 h | <29 μL/min/nmol CYP | >4 h | <29 μL/min/nmol CYP | substrates | 3 h | 39 μL/min/nmol CYP | 0.3 μl/min/mg microsomal protein | >4 h | <29 μL/min/nmol CYP | >4 h | <29 μL/min/nmol CYP | 9.4 μl/min/mg microsomal protein | substrates | 0.15 h | 793 μL/min/nmol CYP | Intrinsic Clearance [6]: 44.6 μL/min/mg protein; w Half-life [3]: 0.323 h; w Intrinsic clearance [3]: 97.4 μL/min/million cells; % change in half-life, MAO inhibitors vs no inhibitors [4]: −5.33%; % change in intrinsic clearance, MAO inhibitors vs no inhibitors [4]: 4.67%; Intrinsic clearance, with inhibitors [4, 8]: 7.50 μL/min/million cells; Half-life, with inhibitors [4, 9]: 2.8292 h; Intrinsic clearance, with inhibitors [4, 9]: 7.5 μL/min/million cells; Half-life, with inhibitors ([4]; human hepatocytes, with MAO-A/B inhibitors (Table 4; unit given only in Table 5)): 2.8292 h; quicker intrinsic clearance in the presence of MAO inhibitors ([4]; human hepatocytes, with vs without MAO inhibitors): ~5%; Intrinsic clearance, without inhibitors ([4]; human hepatocytes): 7.15 μL/min/million cells
